For assay [1], the target named is T1, S-ribosylhomocysteine lyase (Escherichia coli K-12) (UniProt P45578).
T1 sequence (whole entry): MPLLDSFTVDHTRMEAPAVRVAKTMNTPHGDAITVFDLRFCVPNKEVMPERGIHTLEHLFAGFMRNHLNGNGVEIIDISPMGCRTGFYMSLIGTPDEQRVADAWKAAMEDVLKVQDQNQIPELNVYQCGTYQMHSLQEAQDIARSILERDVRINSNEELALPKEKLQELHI
As to the kind of experiment: Inhibition of Escherichia coli LuxS using S-ribosyl-homocysteine substrate at pH 7 after 10 mins by fluorimetric assay.

Assay [2] deals with T1, S-ribosylhomocysteine lyase (Escherichia coli K-12). As to the kind of experiment: Inhibition of Escherichia coli LuxS assessed as formation of enzyme-adduct formation by mass spectrometry.
Assay [3] has the same target. As to the kind of experiment: Inhibition of Escherichia coli LuxS assessed as induction of Cys126 alkylation by MALDI-MS method.
Assay [4] has the same target. As to the kind of experiment: Inhibition of Escherichia coli LuxS using variable levels of S-ribosyl-homocysteine substrate by UV/Vis absorbance spectroscopy. The note with it: TDE = time-dependent effect.
For assay [5] the target is unchanged. As to the kind of experiment: Inhibition of Escherichia coli LuxS using variable levels of S-ribosyl-homocysteine substrate at pH 7 after 10 mins by fluorimetric assay.
Assay [6] shares this target. As to the kind of experiment: Inhibition of Escherichia coli LuxS assessed as induction of covalent modification by UV/Vis absorbance spectroscopy.

Calls of active or inactive are those of the source. No cut-off for these calls is given here.

Regarding `O=C1C=CC(=C(Br)Br)O1`, in assay [1], the inhibition result is “Active”.
Take `CCCCC1=C(Br)/C(=C/Br)OC1=O`: the inhibition entry in assay [2], in assay [3], in assay [5] and in assay [6] was “Active” throughout. In addition, the inhibition result in assay [4] is “tde”; in assay [1], “Dose-dependent effect”.
With `O=C1C=C/C(=C/Br)O1`, the inhibition result in assay [1] was “Dose-dependent effect”.
`CCCCC1=CC(=C(Br)Br)OC1=O`: the inhibition result in assay [1] was “Active”.
